Read-outs that look alike come from different tables or passages of the source.
System: alkaline protease API-26 produced by Bacillus sp. SD 114 (FERM BP-5736)
Type: biochemical
Protocol: Add 50 μl of the enzyme solution diluted appropriately to 500 μl of 50 mM Atkins-Pantin borate buffer, pH10, and pre-incubate at 30° C. for 3 to 5 minutes. To this solution, add 500 μl of 2% Hammarsten*s casein solution, pH 10, and after 10 minutes, stop the reaction by adding 2 ml of trichloroacetic acid (TCA) solution (0.032 M TCA solution adjusted to pH 4 with acetate buffer). Leave at 30° C. for more than 10 minutes, and filter with paper filter No.2 (Toyo Roshi). To 1 ml of filtrate add 5 ml of 0.4 M sodium carbonate and 1 ml of phenol reagent diluted 6-fold with water. Leave at 30° C. for 20 minutes for coloring, and then determine the absorbance at 660 nm. The unit of the protease activity is described by the katal. One katal is defined as the activity that the protease reacting with casein as a substrate at pH 10 and at 30° C. produces a degradation product with the absorbance at 660 nm equivalent to one mole of tyrosine.
Effects of various inhibitors against this enzyme were investigated according to the following conditions and procedure:
A solution containing this enzyme at about 20 nkatal/ml in 50 mM borate buffer, pH 10 was prepared. To this solution, EDTA, p-mercuribenzoic acid (PCMV) or phenylmethanesulfonyl fluoride (PMSF) was added at a concentration shown in Table 4. After incubating at 30° C. for 30 minutes, the enzyme activity was determined.

Compound: O=C(O)CN(CCN(CC(=O)O)CC(=O)O)CC(=O)O [EDTA, ethylenediaminetetraacetic acid]
- Activity (relative activity, enzyme with no inhibitor = 100%) (pH 10): 99

Compound: O=C(O)c1cc[c]([Hg][OH])cc1 [PCMV, p-mercuribenzoic acid]
- Activity (relative activity, enzyme with no inhibitor = 100%) (PCMV 1 mM, 50 mM borate buffer pH 10, incubated at 30° C. for 30 minutes, enzyme about 20 nkatal/ml): 100%
